Test results reported in patent US8101605B2, “SHIP1 modulators and methods related thereto” (Aquinox Pharmaceuticals Inc., priority 2009, dated 2012).

Each compound was assayed against T1, His-hSHIP1 enzyme (Homo sapiens, UniProt Q92835) (assay: His-hSHIP1 phosphatase activity assay (IP4 substrate, Biomol Green)). Conditions: percentage increase relative to background; concentrations ≦300 μM.
T1 sequence (Q92835 1-1189): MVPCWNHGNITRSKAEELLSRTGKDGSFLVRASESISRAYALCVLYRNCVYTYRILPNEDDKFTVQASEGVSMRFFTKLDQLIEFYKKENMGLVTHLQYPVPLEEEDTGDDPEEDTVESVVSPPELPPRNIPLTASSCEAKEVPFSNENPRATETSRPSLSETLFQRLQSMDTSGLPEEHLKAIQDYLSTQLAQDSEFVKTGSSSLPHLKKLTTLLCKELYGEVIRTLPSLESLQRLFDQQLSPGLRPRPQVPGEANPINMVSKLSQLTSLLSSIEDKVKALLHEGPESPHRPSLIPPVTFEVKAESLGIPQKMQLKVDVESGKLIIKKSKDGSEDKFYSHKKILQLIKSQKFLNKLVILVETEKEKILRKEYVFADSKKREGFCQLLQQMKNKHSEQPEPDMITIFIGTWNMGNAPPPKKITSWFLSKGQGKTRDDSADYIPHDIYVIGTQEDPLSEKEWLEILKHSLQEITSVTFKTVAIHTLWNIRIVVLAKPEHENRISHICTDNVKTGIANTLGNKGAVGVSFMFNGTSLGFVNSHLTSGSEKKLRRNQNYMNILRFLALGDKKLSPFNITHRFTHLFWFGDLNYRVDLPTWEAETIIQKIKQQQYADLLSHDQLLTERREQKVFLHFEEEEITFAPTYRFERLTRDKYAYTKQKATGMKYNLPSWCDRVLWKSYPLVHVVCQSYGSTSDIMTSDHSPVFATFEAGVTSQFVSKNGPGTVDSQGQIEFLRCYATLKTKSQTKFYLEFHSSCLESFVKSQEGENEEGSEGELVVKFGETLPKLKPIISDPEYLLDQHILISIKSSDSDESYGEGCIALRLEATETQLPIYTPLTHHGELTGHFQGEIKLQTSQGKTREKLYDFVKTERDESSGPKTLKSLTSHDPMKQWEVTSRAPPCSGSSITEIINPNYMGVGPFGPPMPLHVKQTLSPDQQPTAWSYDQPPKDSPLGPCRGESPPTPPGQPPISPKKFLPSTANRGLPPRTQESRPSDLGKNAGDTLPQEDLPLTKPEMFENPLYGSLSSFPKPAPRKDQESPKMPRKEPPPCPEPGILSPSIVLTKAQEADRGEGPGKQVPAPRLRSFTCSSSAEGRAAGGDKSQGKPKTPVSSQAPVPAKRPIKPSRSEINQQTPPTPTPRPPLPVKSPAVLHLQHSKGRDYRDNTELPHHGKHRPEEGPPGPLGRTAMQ
Type: biochemical
Procedure: Test compounds were dissolved in 95% ethanol to form stock solutions. Before screening, the stock solutions were diluted with Phosphatase Assay Buffer (20 mM Tris-HCL, 10 mM MgCl2 pH 7.5, 0.02% Tween 20) to form working assay solutions that contained 10% ethanol. The assay was carried out on 96-well microtiter plates using a modified procedure of that reported by Ong et al., Blood 110, 1942-1949, 2007 and Yang et al., Org Lett 7, 1073-1076, 2005, both of which references are incorporated herein by reference in their entirety.
Each reaction contained 5 μL of His-hSHIP1 enzyme (15-20 ng), 10 μL of the substrate, 1,3,4,5-inositol tetrakisphosphate (IP4; 50 μM final), 5 μL of Phosphatase Assay Buffer, and 5 μL of test compound at various concentrations in 10% ethanol (0-300 μM final). Control blanks were also prepared by replacing His-hSHIP1 enzyme, IP4, or test compounds with Phosphatase Assay Buffer. After adding the reaction components in a 96-well microtiter plate on ice, the reaction was mixed by briefly shaking the plate vigorously. The reaction was then incubated at 37° C. for 15 min with gentle shaking followed by addition of 100 μL of Biomol Green Reagent (BIOMOL, PA, USA) to terminate the reaction. The free phosphate released from IP4 by His-hSHIP1 bound to the Biomol Green Reagent, turning the solution green in colour. After incubating the mixture for 20 min at room temperature for colour development, the absorbance was read with a SpectraMax Plus 96-well plate reader (Molecular Devices, Sunnyvale, Calif., USA) at a wavelength of 650 nm.
Percent (%) activation in Table 2 is expressed as a percentage increase relative to background. Scoring is expressed as follows: + (<50%); ++ (≧50% but <65%); +++ (≧65%).

Row | SMILES | Scoring: percent (%) activation of His-hSHIP1 enzyme
1 | CC1(C)CCC[C@]2(C)[C@H]3CS(=O)(=O)c4cc(O)cc(C(=O)O)c4[C@]3(C)CC[C@@H]12 [compound 65, (1R,10R,11S,16S)-5-hydroxy-1,11,15,15-tetramethyl-8,8-dioxo-8λ^6-thiatetracyclo[8.8.0.0^2,7.0^11,16]octadeca-2,4,6-triene-3-carboxylic acid] | ++ (≧50% but <65%)
2 | CNC(=O)c1cc2c(cc1O)S(=O)(=O)C[C@@H]1[C@@]3(C)CCCC(C)(C)[C@@H]3CC[C@@]21C [compound 73, (1R,10R,11S,16S)-5-hydroxy-N,1,11,15,15-pentamethyl-8,8-dioxo-8λ^6-thiatetracyclo[8.8.0.0^2,7.0^11,16]octadeca-2,4,6-triene-4-carboxamide] | + (<50%)
3 | COc1cc(C)cc2c1[C@]1(C)CC[C@H]3C(C)(C)CCC[C@]3(C)[C@H]1CS2 [Compound No. 14, (1R,10R,11S,16S)-3-methoxy-1,5,11,15,15-pentamethyl-8-thiatetracyclo[8.8.0.0^2,7.0^11,16]octadeca-2,4,6-triene] | + (<50%)
4 | COc1cc(O)c2c(c1)[C@]1(C)CC[C@H]3C(C)(C)CCC[C@]3(C)[C@H]1CO2 [Compound No. 44, (1R,10R,11S,16S)-4-methoxy-1,11,15,15-tetramethyl-8-oxatetracyclo[8.8.0.0^2,7.0^11,16]octadeca-2,4,6-trien-6-ol] | ++ (≧50% but <65%)
5 | COc1cc(O)cc2c1[C@]1(C)CC[C@H]3C(C)(C)CCC[C@]3(C)[C@H]1CS2 [Compound No. 25, (1R,10R,11S,16S)-3-methoxy-1,11,15,15-tetramethyl-8-thiatetracyclo[8.8.0.0^2,7.0^11,16]octadeca-2,4,6-trien-5-ol] | ++ (≧50% but <65%)
6 | CC1(C)CCC[C@]2(C)[C@H]3CS(=O)(=O)c4cc(O)cc(C(=O)N5CCNCC5)c4[C@]3(C)CC[C@@H]12 [compound 100, (1R,10R,11S,16S)-5-hydroxy-1,11,15,15-tetramethyl-3-[(piperazin-1-yl)carbonyl]-8λ^6-thiatetracyclo[8.8.0.0^2,7.0^11,16]octadeca-2,4,6-triene-8,8-dione] | + (<50%)
7 | CNC(=O)c1cc(O)cc2c1[C@]1(C)CC[C@H]3C(C)(C)CCC[C@]3(C)[C@H]1CS2(=O)=O [compound 66, (1R,10R,11S,16S)-5-hydroxy-N,1,11,15,15-pentamethyl-8,8-dioxo-8λ^6-thiatetracyclo[8.8.0.0^2,7.0^11,16]octadeca-2,4,6-triene-3-carboxamide] | + (<50%)
8 | Cc1cc(O)c2c(c1)S(=O)(=O)C[C@@H]1[C@@]3(C)CCCC(C)(C)[C@@H]3CC[C@@]21C [Compound No. 16, (1R,10R,11S,16S)-3-hydroxy-1,5,11,15,15-pentamethyl-8-thiatetracyclo[8.8.0.0^2,7.0^11,16]octadeca-2,4,6-triene-8,8-dione] | +++ (≧65%)
9 | CONC(=O)c1cc(O)cc2c1[C@]1(C)CC[C@H]3C(C)(C)CCC[C@]3(C)[C@H]1CS2(=O)=O [compound 95, (1R,10R,11S,16S)-5-hydroxy-N-methoxy-1,11,15,15-tetramethyl-8,8-dioxo-8λ^6-thiatetracyclo[8.8.0.0^2,7.0^11,16]octadeca-2,4,6-triene-3-carboxamide] | + (<50%)
10 | CC1(C)CCC[C@]2(C)[C@H]3CS(=O)(=O)c4cc(C(=O)N5CCC(C(=O)O)CC5)cc(O)c4[C@]3(C)CC[C@@H]12 [compound 98, 1-{[(1R,10R,11S,16S)-3-hydroxy-1,11,15,15-tetramethyl-8,8-dioxo-8λ^6-thiatetracyclo[8.8.0.0^2,7.0^11,16]octadeca-2,4,6-trien-5-yl]carbonyl}piperidine-4-carboxylic acid] | + (<50%)
11 | COc1cc(OC)c2c(c1)S(=O)(=O)C[C@@H]1[C@@]3(C)CCCC(C)(C)[C@@H]3CC[C@@]21C [Compound No. 23, (1R,10R,11S,16S)-3,5-dimethoxy-1,11,15,15-tetramethyl-8-thiatetracyclo[8.8.0.0^2,7.0^11,16]octadeca-2,4,6-triene-8,8-dione] | +++ (≧65%)
12 | COc1cc(O)c(CN2CCOCC2)c2c1[C@]1(C)CC[C@H]3C(C)(C)CCC[C@]3(C)[C@H]1CS2(=O)=O [compound 106, (1R,10R,11S,16S)-5-hydroxy-3-methoxy-1,11,15,15-tetramethyl-6-(morpholin-4-ylmethyl)-8^6-thiatetracyclo[8.8.0.0^2,7.0^11,16]octadeca-2,4,6-triene-8,8-dione] | + (<50%)
13 | CONC(=O)c1cc(O)c2c(c1)S(=O)(=O)C[C@@H]1[C@@]3(C)CCCC(C)(C)[C@@H]3CC[C@@]21C [compound 96, (1R,10R,11S,16S)-3-hydroxy-N-methoxy-1,11,15,15-tetramethyl-8,8-dioxo-8λ^6-thiatetracyclo[8.8.0.0^2,7.0^11,16]octadeca-2,4,6-triene-5-carboxamide] | + (<50%)
14 | COC(=O)c1cc(C(=O)O)cc2c1[C@]1(C)CC[C@H]3C(C)(C)CCC[C@]3(C)[C@H]1CS2(=O)=O [compound 84, (1R,10R,11S,16S)-3-(methoxycarbonyl)-1,11,15,15-tetramethyl-8,8-dioxo-8λ^6-thiatetracyclo[8.8.0.0^2,7.0^11,16]octadeca-2,4,6-triene-5-carboxylic acid] | + (<50%)
15 | Cc1cc(O)c2c(c1)SC[C@@H]1[C@@]3(C)CCCC(C)(C)[C@@H]3CC[C@@]21C [Compound No. 15, (1R,10R,11S,16S)-1,5,11,15,15-pentamethyl-8-thiatetracyclo[8.8.0.0^2,7.0^11,16]octadeca-2,4,6-trien-3-ol] | +++ (≧65%)
16 | CNC(=O)c1cc(C(=O)NC)c2c(c1)S(=O)(=O)C[C@@H]1[C@@]3(C)CCCC(C)(C)[C@@H]3CC[C@@]21C [compound 86, (1R,10R,11S,16S)-1,3-N,5-N,11,15,15-hexamethyl-8,8-dioxo-8λ^6-thiatetracyclo[8.8.0.0^2,7.0^11,16]octadeca-2,4,6-triene-3,5-dicarboxamide] | + (<50%)
17 | CC1(C)CCC[C@]2(C)[C@H]3CS(=O)(=O)c4cc(O)cc(C(=O)N5CCOCC5)c4[C@]3(C)CC[C@@H]12 [compound 88, (1R,10R,11S,16S)-5-hydroxy-1,11,15,15-tetramethyl-3-[(morpholin-4-yl)carbonyl]-8λ^6-thiatetracyclo-[8.8.0.0^2,7.0^11,16]octadeca-2,4,6-triene-8,8-dione] | + (<50%)
